Assay results as given in patent US20040121474A1, “Detection and evaluation of chemically-mediated and ligand-mediated t-cell activation using optophoretic analysis” (Genoptix, Inc, priority 2002, published 2004).
Where a name gives a salt, the structure may show the parent alone. Read-outs that look alike come from different tables or passages of the source.

Assays:
[1] = test system: U937 cells; assay: Escape velocity, PMA inhibition by bisindolymaleimide; type: cell-based; details: for Escape velocity Ave.: four hours
From the text: The objective of this experiment was to test the effect of bisindolymaleimide on cells exposed to PMA. Bisindolymaleimide is a Protein Kinase C inhibitor and should block the effect of PMA on U937 cells and their escape velocities. As shown in this and prior experiments, exposure of U937 cells to PMA results in an increase in the escape velocity of the cells. Therefore, it is anticipated that addition of bisindolymaleimide will reduce or eliminate the increase in escape velocity caused by PMA. This has in fact been observed in the data shown below.
Bisindolymaleimide was tested at two concentrations: 200 ng/ml and 50 ng/ml. Samples not treated with bisindolymaleimide received an equivalent amount of the carrier, MeOH, as a control. […] The concentration of PMA tested was 10 ng/ml. Samples not receiving PMA received DMSO.
Once the flasks were prepared, they were incubated at 37° C. 5% CO2 for four hours. At the four hour timepoint, 300 μl of cells were removed from each flask and pelleted at 5000 rpm for 5 minutes. The cells were then resuspended in 6 ml PBS/1% BSA and 60 μl trypan blue.

[2] = test system: CD11b expression in HL-60 cells; assay: FACS CD11b expression profile; type: cell-based; details: 1% DMSO
Description: (§1) Fast scan analysis was also performed on HL-60 cells that were treated with PMA and DMSO. A time course evaluation of PMA treated HL-60 cells was performed with fast scan data taken at 16 hours, 24 hours, 40 hours, and 72 hours post-treatment with 400 ng/ml PMA. A control sample of HL-60 cells was also tested using EtOH as the vehicle for purposes of comparing the differentiated cells with the undifferentiated HL-60 cells. The PMA-treated and control cells were harvested and trypsinized. The samples were then resuspended in PBS/1% BSA. A set of samples was also obtained and left as pellets at 4° C. for subsequent FACS analysis.
FIG. 145 illustrates a histogram of the travel distance of the control cells as well as the PMA-treated cells at 16 hours, 24 hours, 40 hours, and 72 hours post-treatment. FIG. 146 illustrates the mean travel distances of the control cells as well as the PMA-treated cells at 16 hours, 24 hours, 40 hours, and 72 hours post-treatment. FIG. 147 illustrates the FACS CD11b expression profile in PMA-treated HL-60 cells as well as the control. CD11b is a known marker of cellular differentiation and is expressed on the surface of differentiating cells. […] The data illustrate that Optophoretic analysis can be used as an assay for the detection and quantification of cellular differentiation. […]

[3] = test system: HL-60 cells; assay: Fast scan analysis, differentiation of HL-60 cells; type: cell-based; details: 1% DMSO
Description: as §1
A time course evaluation of DMSO treated HL-60 cells was performed with fast scan data taken at 16 hours, 24 hours, 40 hours, and 70 hours post-treatment with 1% DMSO. A control sample of HL-60 cells was also tested for purposes of comparing the differentiated cells with the undifferentiated HL-60 cells. The DMSO-treated and control cells were then harvested and resuspended in PBS/1% BSA. A set of samples was also obtained and left as pellets at 4° C. for subsequent FACS analysis.

[4] = test system: wild type Staphylococcus aureus; assay: Bacterial screen for drug sensitivity, escape velocity; type: cell-based; details: 5 μg/ml Erythromycin
Description: (§2) In this experiment, escape velocity was measured over time in wild type Staphylococcus aureus and an Erythromycin-resistant strain. 5 μg/ml of Erythromycin was applied to both the wild type Staphylococcus aureus and an Erythromycin-resistant strain. Escape velocity measurements were taken at time zero, 30 minutes post-treatment, and 3 hours post-treatment. […] In this experiment, however, escape velocity measurements were made at time zero, 30 minutes post-treatment, and 1 hour post-treatment, and 2 hours post-treatment. A reduction in escape velocity of the Erythromycin-sensitive strain can be seen at 1 hour post-treatment.

[5] = test system: Erythromycin-resistant strain; assay: as above; type: cell-based, Staphylococcus aureus; details: 5 μg/ml Erythromycin
Description: as §2

[6] = test system: K-562, BV-173, EM-3, and U-937 cell lines; assay: Fast scan analysis, effect of Gleevec; type: cell-based; details: 1 μM Gleevec, 48 hours, U-937 cells excepted
From the text: (§3) FIGS. 30A and 30B show optical interrogation of a group of cells 610 using a fast scan analysis. In this method, a moving optical gradient 612 (laser beam) in the form of a line is moved relative to the cells 610. […] Instead, an image can be taken of the cells 610 prior to the scan to determine the starting position of each cell 610. […] The distances traveled can be obtained by images taken of the cells 610 before and after the scanning process. The optical gradient 612 is moved at a speed that is higher than the escape velocity of all the cells 610 within the group. In this manner, all of the cells 610 are left behind the moving optical gradient 612. In an alternate fast scan embodiment, the cells 610 are initially lined up at a starting position A. After aligning the cells 610, the optical gradient 612 is rapidly moved and their distance of travel is measured by optical imaging. It should be understood that fast scan analysis may include multiple scans or “sweeps” of the cells 610. Generally, it has been observed that multiple scans produce larger cell movements.

[7] = test system: K562, BV-173, EM-3, and U-937 cells; assay: Escape velocity, effect of Gleevec; type: cell-based; details: 72 hours after exposure, all four cell types
From the text: The U-937 cells have no copies of the gene. The K-562 line of cells has, on average, one copy of the gene per cell. The BV-173 line of cells has, on average, three copies of the gene per cell. The EM-3 cell line has, on average, five copies of the gene per cell. […] FIG. 44 illustrates the measured escape velocities (average) for each of the four cell types. […] In addition, the decrease in escape velocity for the Gleevec-treated cells was more pronounced in those cell lines that had higher copy numbers of the Bcr-Abl gene.

[8] = test system: Jurkat cells; assay: Escape velocity, TNF-α effect on Jurkat cells; type: cell-based; details: TNF inhibitor added with TNF
Description: After 48 hours of incubation, the cells were removed and centrifuged for 5 minutes at 5,000 rpm. Then the cells were resuspended in PBS/1% BSA and trypan blue. A higher power setting, 140 mW instead of 100 mW, was used for this experiment. The escape velocities were measured as follows:
In this experiment Leflunomide and Silymarin were added with TNF to see if the anticipated increase in escape velocity measurements could be counteracted by the presence of the TNF inhibitors.

[9] = test system: U937 cells
Description: This experiment is designed to compare the effects of two concentrations of sodium salicylate on U937 cells. Sodium salicylate was prepared at two concentrations: 20 mM and 5 mM. The escape velocities of the cells was tested at 5 hours, 24 hours and 47 hours. At each timepoint, 30 μl of sample was pelleted at 5,000 rpm for 5 minutes and then resuspended in PBS/1% BSA and trypan blue.

[10] = test system: Chang liver cells; type: cell-based; details: human, 1 μm
From the text: as §3
This experiment is designed to test the effect of ketoconazole on human liver cells. Ketoconazole induces toxicity in liver cells. The sample cells were Chang liver cells. The concentration of ketoconazole used to treat the cells was 1 μm. […]

[11] = test system: Chang liver cells; assay: Escape velocity, toxicity of ketoconazole to liver cells; type: cell-based, human; details: 1 μm of ketoconazole, 1.5 hours of treatment
Description: This experiment is designed to test the effect of ketoconazole on human liver cells. Ketoconazole induces toxicity in liver cells. The sample cells were Chang liver cells. The concentration of ketoconazole used to treat the cells was 1 μm. Escape velocity and fast scan protocols were applied to determine the impact, if any, of ketoconazole treatment. […] Consequently, Optophoresis was able to detect an effect on the escape velocity of treated cells within 1.5 hours of exposure to ketoconazole. FIGS. 44-45 show the fast scan results of ketoconazole-treated Chang liver cells. […] The ketoconazole-treated cells generally traveled a smaller distance as compared to the non-treated control.

[12] = test system: CCRF-CEM; assay: Escape velocity, topotecan on sensitive cell line; type: cell-based; details: 10 μM topotecan, 6 hours
Description: In a fifth experiment, two different cell lines obtained from ATCC which have varying degrees of sensitivity to topoisomerase I inhibitors such as camptothecin and topotecan were subject to Optophoretic analysis. A group of cells from a parental cell line CCRF-CEM that is sensitive to camptothecin and topotecan were incubated for 6 hours with 10 μM topotecan. Another group of cells from the cell line CEM/C2, which are 970-fold less sensitive to camptothecin and topotecan, were also incubated for 6 hours with 10 μM topotecan. Control cells from both the CCRF-CEM and CEM/C2 cell lines were also tested. […] Escape velocity measurements were then taken using a 100 mW laser with a diameter of 28 pixels. […] Optophoretic analysis was thus able to score cross-resistance of camptothecin-resistant cell lines to topotecan, an analog of camptothecin.

[13] = test system: U937 cells; assay: Escape velocity, characterization of topoisomerase inhibitors
[14] = test system: CEM/C2; details: CEM/C2 cell line obtained from ATCC; cited from earlier work

In the case of `CN(C)CCCn1cc(C2=C(c3c[nH]c4ccccc34)C(=O)NC2=O)c2ccccc21` [Bisindolymalemide, Bisindolymaleimide], the “Escape velocity Ave.” value ([1]; 50 ng/ml bisindolymaleimide + 10 ng/ml PMA) is reported as 15.1 μm/sec, the “Escape velocity Ave.” value ([1]; 50 ng/ml bisindolymaleimide, no PMA) is reported as 13.9 μm/sec and the “effect on PMA-caused shift in escape velocity (FIG. 33)” value ([1]; 200 ng/ml BIMI for 30 minutes, then 10 ng/ml PMA) is reported as “blocked the optophoretic shift in escape velocity”. For the same compound, the “Escape velocity Ave.” value ([1]; 200 ng/ml bisindolymaleimide + 10 ng/ml PMA) was 14.5 μm/sec and the “Escape velocity Ave.” value ([1]; 200 ng/ml bisindolymaleimide, no PMA) was 14.0 μm/sec.

For `C[S+](C)[O-]` [DMSO, dimethylsulfoxide], the “time after treatment at which a change in CD11b expression levels was detected” value [2] was 40 h and the “time after treatment at which a noticeable decrease of the mean travel distance was detected” value [3] was at most 16 h.

In the case of `CC[C@H]1OC(=O)[C@H](C)[C@@H](O[C@H]2C[C@@](C)(OC)[C@@H](O)[C@H](C)O2)[C@H](C)[C@@H](O[C@@H]2O[C@H](C)C[C@H](N(C)C)[C@H]2O)[C@](C)(O)C[C@@H](C)C(=O)[C@H](C)[C@@H](O)[C@]1(C)O` [Erythromycin], the “time post-treatment at which a reduction in escape velocity can be seen (FIG. 81)” value [4] is reported as 1 h, the “change of escape velocity over time (FIG. 80)” value ([4]; time zero, 30 minutes, 3 hours) is reported as “decreases” and the “escape velocity (FIG. 80)” value [5] is reported as “same escape velocity as the untreated Erythromycin-sensitive strain”.

With `Cc1ccc(NC(=O)c2ccc(CN3CCN(C)CC3)cc2)cc1Nc1nccc(-c2cccnc2)n1` [Gleevec, imatinib mesylate] the “mean travel distances as compared to non-treated controls (FIG. 41)” value [6] was “lower mean travel distances” and the “escape velocity as compared to non-treated cells (FIG. 40)” value [7] was “significantly lower escape velocity”.

For `Cc1oncc1C(=O)Nc1ccc(C(F)(F)F)cc1` [Leflunomide], the “effect on TNF-caused increase in escape velocity (FIG. 36)” value [8] was “mitigate the increase in escape velocity caused by TNF”.

With `O=C([O-])c1ccccc1O.[Na+]` [Sodium Salicylate, Sodium salicylate] the “shift in escape velocities (FIG. 37)” value ([9]; 5 mM and 20 mM, 5 and 24 hours) was “slight but statistically significant shift in escape velocities”, the “Escape velocity Ave.” value ([9]; 5 mM, 5 hours) was 14.1 and the “Escape velocity Ave.” value ([9]; 5 mM, 24 hours) was 15.2. For the same compound, the “Escape velocity Ave.” value ([9]; 5 mM, 47 hours) was 13.7, the “Escape velocity Ave.” value ([9]; 20 mM, 5 hours) was 13.3 and the “Escape velocity Ave.” value ([9]; 20 mM, 24 hours) was 16.0. The “cell viability (trypan blue)” value ([9]; 20 mM, 47 hours) was “all cells were dead”.

For `CC(=O)N1CCN(c2ccc(OCC3COC(Cn4ccnc4)(c4ccc(Cl)cc4Cl)O3)cc2)CC1` (stereo not shown) [ketoconazole], the mean travel distance [10] was 20.97 μm and the “escape velocity vs control (FIG. 46)” value [11] was “marked decrease in escape velocity”.

For `CC[C@@]1(O)C(=O)OCc2c1cc1n(c2=O)Cc2cc3c(CN(C)C)c(O)ccc3nc2-1` [topotecan], the “decrease in escape velocity as compared to the CEM/C2 cells (FIG. 67)” value [12] was “larger decrease in escape velocity”, the “shift in escape velocity as compared to the camptothecin-treated cells (FIG. 54)” value ([13]; 4 μg/ml, four hours) was “larger shift in escape velocity” and the cellular debris ([13]; 10 μM and 20 μM topotecan, six hours) was “a significant amount of cellular debris was present”. The cell death ([13]; 10 μM topotecan, 24 hour) was “virtually all of the treated U937 cells were dead”, the “dead or necrotic cells” value ([13]; 2.5, 5 and 10 μM topotecan, 4 hour) was “not a significant number of dead or necrotic cells” and the “less sensitive than parental cell line CCRF-CEM” value [14] was 970 fold.
